# In PubChem BioAssay (NCI):
# Where “and” joins values, the source holds several entries; their conditions need not be identical. Equal values may be shown once.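 Tested at 5 concentrations; 48 h exposure; 96-well plates; endpoints linearly interpolated, else capped at highest concentration. GI50: concentration for 50% inhibition of growth. The concentration for full growth arrest is given as TGI.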
# Assays:
# Assay in all cases: growth of human tumour cells (NCI), 48 h
# [1] = tested on: LOX IMVI melanoma
# [2] = tested on: SK-MEL-28 melanoma
# [3] = tested on: TK-10 renal
# [4] = tested on: SW-620 colon
# [5] = tested on: MCF7 breast
# [6] = tested on: MALME-3M melanoma
# [7] = tested on: OVCAR-4 ovarian
# [8] = tested on: EKVX NSCLC
# [9] = tested on: RXF 393 renal
# [10] = tested on: OVCAR-5 ovarian
Compound,GI50 [1] [µM],TGI [1],GI50 [2],TGI [2],GI50 [3] [µM],TGI [3],GI50 [4],TGI [4],GI50 [5],TGI [5],GI50 [6],TGI [6],GI50 [7],TGI [7],GI50 [8],TGI [8],GI50 [9] [µM],TGI [9],GI50 [10] [µM],TGI [10]
CSC(=S)NCc1cn(C)c2ccccc12,26.5,94.1 µM,> 100 µM,> 100 µM,28.7,> 100 µM,30.1 µM,> 100 µM,24.3 µM,90.9 µM,24.6 µM,92.4 µM,62 µM,> 100 µM,32 µM,> 100 µM,17.9,59.6 µM,44.1,> 100 µM
C=C(CN1CCc2ccccc2C1)c1ccc(CCCC(=O)Nc2ccccc2N)cc1,9.15,21.7 µM,15.7 µM,29.7 µM,41.3,> 100 µM,15.6 µM,32.1 µM,8.45 µM,> 100 µM,11.7 µM,25.7 µM,14.5 µM,49.8 µM,12 µM,47.1 µM,17.1,35.7 µM,26.5,80.2 µM
COc1cc(C=NCC(=O)CSC(c2ccccc2)c2ccccc2)ccc1O,10.5,23.5 µM,14.4 µM,27.6 µM,14.7,53.7 µM,15.5 µM,31.4 µM,21.2 µM,> 100 µM,6.11 µM,22.4 µM,5.32 µM,23 µM,14.3 µM,50.7 µM,13.4,26.8 µM,16.4,30.4 µM
BrCc1ccc2ccc3ccc(CBr)nc3c2n1,,3.21 µM,,6.02 µM,,5.72 µM,,5.86 µM,,4.87 µM,,,,12.3 µM,,22.6 µM,,4.69 µM,,27.1 µM
Cc1cc(C)c(-c2c(O)c(Br)c(-c3c(C)cc(C)c(Br)c3C)c(O)c2Br)c(C)c1Br,1.74,3.39 µM,2.66 µM,12.8 µM,3.37,13.4 µM,2.94 µM,12 µM,2.38 µM,11.8 µM,1.65 µM,5.8 µM,2.56 µM,9.92 µM,1.62 µM,8.86 µM,2.27,7.31 µM,2.85,9.63 µM
O=C(O)C(Cc1ccccc1)N1C(=O)/C(=C/C(Cl)=C/c2ccc([N+](=O)[O-])cc2)SC1=S (configuration not stated),1.64,3.26 µM,2.16 µM,4.68 µM,,,,,2.38 µM,10.7 µM,2.13 µM,4.82 µM,3.21 µM,> 100 µM,2.59 µM,7.29 µM,1.54,3.02 µM,2.82,7.9 µM
CCNc1ccc2c(c1)C(=O)N(OS(C)(=O)=O)C2=O,,> 100 µM,,> 100 µM,,> 100 µM,,> 100 µM,,> 100 µM,,> 100 µM,,> 100 µM,,> 100 µM,,> 100 µM,,
O=C(O)CCN1C(=S)CSC1=S,,> 100 µM,,> 100 µM,,> 100 µM,,> 100 µM,,> 100 µM,,> 100 µM,,> 100 µM,,> 100 µM,,> 100 µM,,> 100 µM
CCOC(=O)c1sc(NC(=O)COc2ccc(/C=C3\CCc4cc(OC)ccc4C3=O)cc2)nc1C,1.31,18.8 µM,14.6 µM,27.7 µM,3.34,21.4 µM,11.4 µM,23.5 µM,9.43 µM,23 µM,1.13 µM,12.6 µM,11.8 µM,27.7 µM,18.5 µM,53.3 µM,12,29.3 µM,8.97,24.6 µM
CN(C)CCN=c1nc2c(c(N)n1-c1ccccc1)c(=S)n(-c1ccccc1)c(=S)n2-c1ccccc1,1.38,2.71 µM,0.867 µM,2.33 µM,2.36,10.1 µM,1.93 µM,4.87 µM,1.9 µM,7.39 µM,2.04 µM,3.93 µM,2.98 µM,9.01 µM,11 µM,27.2 µM,2.62,7.8 µM,9.95,25.5 µM
O=C(CC1(O)CCCCC1)OC1CCCC1,,> 100 µM,,,,> 100 µM,,,,> 100 µM,,> 100 µM,,> 100 µM,,> 100 µM,,> 100 µM,,> 100 µM
CC(C)(C)OC(=O)NCCCCCCCCCCCCn1c2c(c3ccccc3c1=O)C(=O)c1ccccc1-2,> 100,> 100 µM,> 100 µM,> 100 µM,19.1,45.5 µM,> 100 µM,> 100 µM,> 100 µM,> 100 µM,> 100 µM,> 100 µM,> 100 µM,> 100 µM,85.7 µM,> 100 µM,17.8,49.2 µM,75.9,> 100 µM
COc1ccc(C(=O)Cn2c(C(=O)c3ccc(Cl)cc3)nc(-c3ccccc3)c2-c2ccccc2)cc1,> 100,> 100 µM,> 100 µM,> 100 µM,46.5,> 100 µM,> 100 µM,> 100 µM,> 100 µM,> 100 µM,> 100 µM,> 100 µM,94.2 µM,> 100 µM,> 100 µM,> 100 µM,23.6,> 100 µM,> 100,> 100 µM
COC1CCC(OC)C(c2nc3sccn3c2/C=N/N=C(N)N)C1 (configuration not stated),28.5,67.4 µM,34.9 µM,> 94.4 µM,> 52.1,> 81.4 µM,19.4 µM,53.1 µM,20.1 µM,45 µM,1.7 µM,23.8 µM,43.5 µM,> 100 µM,34.8 µM,> 92.7 µM,24.8,> 82.9 µM,2.84,> 51.7 µM
Cc1c(-c2ccc(-c3ccccc3F)cc2)nc2ccc(F)cc2c1C(=O)O,0.508,31.2 µM and 71.3 µM,22.4 µM and 67.8 µM,158 µM and 400 µM,62.7,208 µM and 471 µM,0.488 µM and 1.16 µM,139 µM and 577 µM,0.445 µM and 0.979 µM,170 µM and 405 µM,22.7 µM and 43.9 µM,107 µM and 293 µM,41 µM and 81.6 µM,88.7 µM and 524 µM,77 µM and 53.3 µM,173 µM and 448 µM,76,121 µM and 236 µM,,209 µM and 371 µM
Fc1ccc(-c2ncn(C3CCNCC3)c2-c2ccnc(Oc3ccc(Cl)cc3)n2)cc1,4.16,8.29 µM,4.17 µM,7.85 µM,3.97,7.97 µM,3.74 µM,7.3 µM,3.93 µM,7.7 µM,4.64 µM,10.1 µM,4.15 µM,9.69 µM,6 µM,> 21.3 µM,2.56,5.91 µM,5.09,14.9 µM
CCOC(=O)C(Cc1cc(OC)c(CC(C(=O)OCC)C(=O)OCC)cc1OC)C(=O)OCC,,> 100 µM,,> 100 µM,,> 100 µM,,> 100 µM,,> 100 µM,,> 100 µM,,> 100 µM,,> 100 µM,,97.7 µM,,> 100 µM
CCOC(=O)/C=C/c1ccc([N+](=O)[O-])o1,1.55,3.71 µM,2.08 µM,5.07 µM,4.7,16.3 µM,2.38 µM,7.16 µM,2.74 µM,17.2 µM,2.32 µM,4.99 µM,4.93 µM,20.4 µM,24.7 µM,80.7 µM,1.82,3.86 µM,2.95,8.13 µM
CCOC1=C/C(=N\Nc2ccc([N+](=O)[O-])cc2)CCC1,,> 100 µM,,72.6 µM,,> 100 µM,,> 100 µM,,> 100 µM,,> 100 µM,,> 100 µM,,> 100 µM,,63.1 µM,,> 100 µM
COC(=O)c1c(C(=O)O)c(-c2ccccc2)c(-c2ccccc2)c(-c2ccccc2)c1-c1ccccc1,> 100,> 100 µM,93.4 µM,> 100 µM,> 100,> 100 µM,> 100 µM,> 100 µM,> 100 µM,> 100 µM,> 100 µM,> 100 µM,,,> 100 µM,> 100 µM,> 100,> 100 µM,> 100,> 100 µM
CCOc1ccc2cc(-c3nn(CC4CCN(C)CC4)c4ncnc(N)c34)ccc2c1,19.4,59 µM,3.12 µM,10.1 µM,14.4,34.3 µM,15.7 µM,31.7 µM,13.4 µM,37.1 µM,,,12.9 µM,29.7 µM,26.4 µM,> 100 µM,4.12,18.6 µM,14.4,32.2 µM
